According to ChEMBL document CHEMBL5038581, “Design, synthesis, and biological evaluation of novel dual inhibitors targeting lysine specific demethylase 1 (LSD1) and histone deacetylases (HDAC) for treatment of gastric cancer” (Eur J Med Chem, 2021):
Activity calls are given as the source filed them. The rule behind the calls is not given here.

Experiments:
[1] = molecular target: CYP2C19 (Homo sapiens, UniProt P33261); assay: Inhibition of CYP2C19 (unknown origin) at 10 uM using S-mephenytoin as substrate relative to control; format: ADME; settings: probe S-mephenytoin
Chain of CYP2C19 (P33261 whole entry): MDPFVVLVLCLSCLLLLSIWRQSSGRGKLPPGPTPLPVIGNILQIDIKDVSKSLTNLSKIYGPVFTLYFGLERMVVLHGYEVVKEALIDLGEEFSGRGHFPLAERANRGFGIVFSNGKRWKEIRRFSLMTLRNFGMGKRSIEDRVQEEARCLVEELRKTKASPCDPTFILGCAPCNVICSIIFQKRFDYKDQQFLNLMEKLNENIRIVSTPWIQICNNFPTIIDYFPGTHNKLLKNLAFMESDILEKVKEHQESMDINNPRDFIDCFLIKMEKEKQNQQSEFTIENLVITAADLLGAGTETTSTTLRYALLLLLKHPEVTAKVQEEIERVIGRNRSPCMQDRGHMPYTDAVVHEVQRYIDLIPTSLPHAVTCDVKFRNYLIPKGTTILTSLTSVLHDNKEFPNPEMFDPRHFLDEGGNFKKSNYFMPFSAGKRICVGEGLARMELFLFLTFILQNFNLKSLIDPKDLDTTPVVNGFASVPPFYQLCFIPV

[2] = test system: MGC-803; assay: Inhibition of cell migration in human MGC-803 cells assessed as downregulation of Vimentin at 2 to 8 uM for 48 hrs by western blot analysis; format: functional, cell-based; settings: dose 2-8 µM
[3] = molecular target: Histone deacetylase 8 (Homo sapiens, UniProt Q9BY41); assay: Inhibition of HDAC8 (unknown origin) using Ac-peptide as substrate preincubated for 15 mins followed by substrate addition by fluorescence based microplate reader analysis
Chain of Histone deacetylase 8 (Q9BY41 whole entry): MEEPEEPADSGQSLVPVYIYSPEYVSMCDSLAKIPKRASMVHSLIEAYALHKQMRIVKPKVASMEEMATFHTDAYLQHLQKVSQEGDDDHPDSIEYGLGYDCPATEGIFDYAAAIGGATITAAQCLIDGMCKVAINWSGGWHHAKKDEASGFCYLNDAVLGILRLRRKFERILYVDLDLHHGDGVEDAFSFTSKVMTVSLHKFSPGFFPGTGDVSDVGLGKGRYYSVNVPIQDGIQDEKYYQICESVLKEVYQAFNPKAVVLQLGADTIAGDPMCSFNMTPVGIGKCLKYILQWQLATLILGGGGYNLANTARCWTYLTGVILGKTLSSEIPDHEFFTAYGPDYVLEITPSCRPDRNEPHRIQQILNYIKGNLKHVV

[4] = Metabolic stability in rat liver microsomes assessed as intrinsic clearance in presence of NADPH at 1 uM by LC-MS/MS analysis; format: ADME, Microsome; settings: read-out: CLH
[5] = test system: MGC-803; assay: Inhibition of cell migration in human MGC-803 cells at 2 to 8 uM up to 24 hrs by wound healing assay; format: functional, cell-based; settings: dose 2-8 µM, time hrs <=24
[6] = molecular target: CYP3A4 (Homo sapiens, UniProt P08684); assay: Inhibition of CYP3A4 (unknown origin) at 10 uM using testosterone as substrate relative to control; format: ADME; settings: probe testosterone
Chain of CYP3A4 (P08684 whole entry): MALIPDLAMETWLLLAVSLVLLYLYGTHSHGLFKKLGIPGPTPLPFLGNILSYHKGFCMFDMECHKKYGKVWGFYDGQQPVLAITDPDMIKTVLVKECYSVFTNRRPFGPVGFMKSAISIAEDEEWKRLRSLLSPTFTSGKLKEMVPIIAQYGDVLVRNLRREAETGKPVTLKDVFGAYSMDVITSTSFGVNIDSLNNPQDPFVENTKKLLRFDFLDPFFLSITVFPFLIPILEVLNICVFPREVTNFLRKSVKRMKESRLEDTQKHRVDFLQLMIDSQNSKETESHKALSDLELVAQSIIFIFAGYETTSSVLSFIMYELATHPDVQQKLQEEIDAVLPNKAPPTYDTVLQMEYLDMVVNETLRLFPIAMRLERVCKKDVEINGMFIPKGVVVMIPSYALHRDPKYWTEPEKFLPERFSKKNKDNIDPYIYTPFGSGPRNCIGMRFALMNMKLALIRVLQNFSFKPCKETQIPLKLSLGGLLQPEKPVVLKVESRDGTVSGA

[7] = test system: MGC-803; assay: Inhibition of cell migration in human MGC-803 cells assessed as upregulation of ZO-1 at 2 to 8 uM for 48 hrs by western blot analysis; format: functional, cell-based; settings: dose 2-8 µM
[8] = molecular target: Amine oxidase [flavin-containing] A (Homo sapiens, UniProt P21397); assay: Inhibition of human recombinant MAO-A by multimode plate reader assay
Chain of Amine oxidase [flavin-containing] A (P21397 whole entry): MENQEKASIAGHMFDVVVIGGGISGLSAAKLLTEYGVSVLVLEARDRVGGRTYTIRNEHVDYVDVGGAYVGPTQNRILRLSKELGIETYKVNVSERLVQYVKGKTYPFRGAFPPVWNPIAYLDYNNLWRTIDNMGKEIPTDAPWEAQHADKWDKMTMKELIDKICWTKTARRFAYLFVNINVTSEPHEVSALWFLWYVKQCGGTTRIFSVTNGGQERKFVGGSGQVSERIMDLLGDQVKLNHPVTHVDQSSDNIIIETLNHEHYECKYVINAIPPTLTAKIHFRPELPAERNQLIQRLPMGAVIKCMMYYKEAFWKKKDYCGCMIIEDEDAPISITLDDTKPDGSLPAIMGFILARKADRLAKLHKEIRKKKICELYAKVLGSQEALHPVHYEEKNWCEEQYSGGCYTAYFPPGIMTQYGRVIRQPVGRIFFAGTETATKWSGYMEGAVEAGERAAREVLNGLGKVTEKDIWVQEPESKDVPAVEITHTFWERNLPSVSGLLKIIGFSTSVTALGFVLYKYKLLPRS

[9] = test system: MGC-803; assay: Inhibition of cell migration in human MGC-803 cells assessed as upregulation of E-cadherin at 2 to 8 uM for 48 hrs by western blot analysis; format: functional, cell-based; settings: dose 2-8 µM
[10] = test system: MGC-803; assay: Inhibition of cell migration in human MGC-803 cells 4 to 8 uM up to 24 hrs by Hoechst 33258 staining based transwell migration assay; format: functional; settings: dose 4-8 µM, time hrs <=24
[11] = test system: MGC-803; assay: Inhibition of colony formation in human MGC-803 cells assessed as reduction in colony formation at 4 to 8 uM measured after 7 days by crystal violet staining based microscopic analysis; format: functional, cell-based; settings: dose 4-8 µM, time 7.0 day
[12] = test system: AGS; assay: cells; settings: Homo sapiens, 72 h
[13] = test system: MKN-45; assay: cells; settings: Homo sapiens, MKN-45, 72 h
[14] = test system: MGC-803; assay: Inhibition of cell migration in human MGC-803 cells assessed as upregulation of E-cadherin at 0.2 to 0.6 uM for 48 hrs by western blot analysis; format: functional, cell-based; settings: dose 0.2-0.6 µM
[15] = test system: MGC-803; assay: Inhibition of colony formation in human MGC-803 cells assessed as reduction in colony formation at 0.2 to 0.6 uM measured after 7 days by crystal violet staining based microscopic analysis; format: functional, cell-based; settings: dose 0.2-0.6 µM, time 7.0 day
[16] = test system: SNU1; assay: cells; settings: Homo sapiens, SNU1, 72 h
[17] = test system: MGC-803; assay: Inhibition of cell migration in human MGC-803 cells assessed as upregulation of ZO-1 at 0.2 to 0.6 uM for 48 hrs by western blot analysis; format: functional, cell-based; settings: dose 0.2-0.6 µM
[18] = test system: NCI-N87; assay: cells; settings: Homo sapiens, NCI-N87, 72 h
[19] = test system: MGC-803; assay: Inhibition of cell migration in human MGC-803 cells assessed as downregulation of Vimentin at 0.2 to 0.6 uM for 48 hrs by western blot analysis; format: functional, cell-based; settings: dose 0.2-0.6 µM
[20] = test system: MGC-803; assay: Inhibition of cell migration in human MGC-803 cells 0.2 to 0.6 uM up to 24 hrs by Hoechst 33258 staining based transwell migration assay; format: functional; settings: dose 0.2-0.6 µM, time hrs <=24
[21] = test system: MKN-1; assay: cells; settings: Homo sapiens, MKN-1, 72 h
[22] = molecular target: Histone deacetylase 2 (Homo sapiens, UniProt Q92769)
Chain of Histone deacetylase 2 (Q92769 whole entry): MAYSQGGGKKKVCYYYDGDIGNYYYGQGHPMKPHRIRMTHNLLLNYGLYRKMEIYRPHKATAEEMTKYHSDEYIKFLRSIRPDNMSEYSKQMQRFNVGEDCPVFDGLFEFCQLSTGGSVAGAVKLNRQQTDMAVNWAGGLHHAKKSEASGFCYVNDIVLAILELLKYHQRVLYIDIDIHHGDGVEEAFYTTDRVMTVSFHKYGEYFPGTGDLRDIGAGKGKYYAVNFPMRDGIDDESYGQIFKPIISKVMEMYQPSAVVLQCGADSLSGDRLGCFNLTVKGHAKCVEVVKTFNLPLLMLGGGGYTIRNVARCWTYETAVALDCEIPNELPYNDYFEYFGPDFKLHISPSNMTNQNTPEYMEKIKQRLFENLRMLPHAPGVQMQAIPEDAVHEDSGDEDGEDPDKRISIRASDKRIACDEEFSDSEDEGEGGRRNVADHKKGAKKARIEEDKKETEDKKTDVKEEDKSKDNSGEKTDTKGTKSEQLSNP

[23] = test system: BGC-823; assay: cells; settings: Homo sapiens, BGC-823, 72 h

O=C(NO)c1ccc(/C=C/c2ccnc(-c3ccccc3O)c2)cc1
inhibition at 10 µM [1]: 18.7%
Activity [2]: Active
IC50 [3]: 4.62 µM
microsomal CLint at 1 µM [4]: 505 µL/min/mg
inhibition [5]: Dose-Dependent Effect
inhibition at 10 µM [6]: 87.9%
Activity [7]: Active
IC50 [8]: 34.1 µM
Activity [9]: Active
inhibition [10]: Dose-Dependent Effect
Activity [11]: Dose-Dependent Effect

Cc1ccc(-c2cc(/C=C/c3ccc(C(=O)NO)cc3)ccn2)c(F)c1
IC50 [12]: 1.56 µM
inhibition at 10 µM [1]: 22.8%
IC50 [3]: 8.78 µM
IC50 [13]: 1.16 µM
Activity [14]: Active
inhibition [15]: Dose-Dependent Effect
microsomal CLint at 1 µM [4]: 202 µL/min/mg
IC50 [16]: 1.01 µM
Activity [17]: Active
inhibition at 10 µM [6]: 47.6%
IC50 [18]: 0.23 µM
IC50 [8]: > 100 µM
Activity [19]: Active
inhibition [20]: Dose-Dependent Effect
IC50 [21]: 0.4 µM
IC50 [22]: 0.404 µM
IC50 [23]: 1.5 µM
